Columns and labels:
[1] = molecular target: T1, Epac1 (Homo sapiens, UniProt O95398); test: Epac activation assay, Epac1; type: biochemical
T1 construct: made in house
T1 sequence (O95398 150-881 isoform O95398-3): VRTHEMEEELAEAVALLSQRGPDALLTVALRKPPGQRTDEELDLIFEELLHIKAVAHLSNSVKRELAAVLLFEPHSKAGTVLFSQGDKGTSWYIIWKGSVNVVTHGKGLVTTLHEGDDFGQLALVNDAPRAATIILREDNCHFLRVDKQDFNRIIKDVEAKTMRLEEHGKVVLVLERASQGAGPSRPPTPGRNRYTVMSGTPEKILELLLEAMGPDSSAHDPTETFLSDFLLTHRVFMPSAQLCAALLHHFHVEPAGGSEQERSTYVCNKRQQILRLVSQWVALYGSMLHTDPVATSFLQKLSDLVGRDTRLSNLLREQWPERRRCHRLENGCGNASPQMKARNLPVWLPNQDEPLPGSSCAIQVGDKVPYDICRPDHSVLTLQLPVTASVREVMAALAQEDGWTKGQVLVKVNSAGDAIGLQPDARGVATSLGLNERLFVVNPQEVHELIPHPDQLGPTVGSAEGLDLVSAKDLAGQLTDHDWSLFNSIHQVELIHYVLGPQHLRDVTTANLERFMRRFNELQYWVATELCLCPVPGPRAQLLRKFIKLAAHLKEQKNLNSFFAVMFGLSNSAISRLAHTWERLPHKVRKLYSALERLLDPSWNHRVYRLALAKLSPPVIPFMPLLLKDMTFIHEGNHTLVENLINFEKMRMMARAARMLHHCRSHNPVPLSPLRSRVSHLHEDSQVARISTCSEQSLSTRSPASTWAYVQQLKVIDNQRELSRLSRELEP

[2] = molecular target: T2, Epac1 (Homo sapiens, UniProt O95398); test: Cellular Epac activity: Rap•GTP levels in U2OS cells stably expressing Epac1; type: cell-based; conditions: for rel. RapGTP: relative to induction with forskolin and IBMX, Fig. 6C
T2 construct: pBabe-Flag-Epac1 (Epac1, homo sapiens, amino acids 1–881); expressed in transfected cells; host or cells: U2OS
T2 sequence (O95398 1-881 isoform O95398-3): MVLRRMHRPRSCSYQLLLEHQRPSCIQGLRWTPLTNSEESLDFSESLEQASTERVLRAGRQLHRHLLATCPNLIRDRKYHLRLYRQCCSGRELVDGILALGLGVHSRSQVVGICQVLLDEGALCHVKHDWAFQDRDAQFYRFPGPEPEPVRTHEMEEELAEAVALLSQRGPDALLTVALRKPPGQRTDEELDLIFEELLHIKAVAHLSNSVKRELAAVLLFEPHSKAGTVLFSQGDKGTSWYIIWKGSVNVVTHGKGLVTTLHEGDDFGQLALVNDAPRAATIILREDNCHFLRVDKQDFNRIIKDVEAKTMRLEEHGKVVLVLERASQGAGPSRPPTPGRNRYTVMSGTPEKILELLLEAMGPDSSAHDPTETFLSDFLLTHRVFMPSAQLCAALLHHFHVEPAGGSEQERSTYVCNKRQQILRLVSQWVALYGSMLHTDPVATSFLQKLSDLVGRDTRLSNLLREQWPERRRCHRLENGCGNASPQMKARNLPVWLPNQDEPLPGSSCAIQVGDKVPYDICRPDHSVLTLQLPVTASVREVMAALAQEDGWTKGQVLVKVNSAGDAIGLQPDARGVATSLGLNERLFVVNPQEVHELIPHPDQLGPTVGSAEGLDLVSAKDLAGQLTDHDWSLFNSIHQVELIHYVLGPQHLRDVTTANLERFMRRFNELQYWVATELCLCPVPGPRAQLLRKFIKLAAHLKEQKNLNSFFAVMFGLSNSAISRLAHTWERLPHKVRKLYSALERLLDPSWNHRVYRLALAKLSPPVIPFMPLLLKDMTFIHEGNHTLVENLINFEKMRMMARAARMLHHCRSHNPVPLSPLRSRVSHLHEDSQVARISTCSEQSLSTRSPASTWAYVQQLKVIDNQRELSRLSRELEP
Protocol: Rap•GTP levels were determined by precipitating GTP-bound Rap specifically from cell lysates and subsequent western Blotting with an α-Rap antibody (Santa Cruz Biotechnology). To generate stable cell lines, U2OS cells were transfected with pBabe-Flag-Epac1 (Epac1, homo sapiens, amino acids 1–881) or pBabe-Flag-Epac2 (Epac2, mus musculus, amino acids 1–993), selected for Epac expression and maintained under selection with 2 mg/l puromycin. The cells were cultured according to standard protocols. The activity of PKA was determined by western blotting with a monoclonal α-VASP antibody (BD Transduction Laboratories). Blots were developed by enhanced chemiluminescence (ECL) and the use of X-ray films; for quantification films were scanned. The intensities of the Rap•GTP bands and the upper band of VASP (P-VASP) were determined for each condition in ImageJ and normalized to the stimulation with forskolin and IBMX for each blot.

[3] = molecular target: T3, PKA-IIα (Homo sapiens, UniProt P13861); test: PKA activity assay, PKA-IIα; type: biochemical; conditions: for A (PKA activity): PKAIIα
T3 construct: made in house
T3 sequence (P13861 whole entry): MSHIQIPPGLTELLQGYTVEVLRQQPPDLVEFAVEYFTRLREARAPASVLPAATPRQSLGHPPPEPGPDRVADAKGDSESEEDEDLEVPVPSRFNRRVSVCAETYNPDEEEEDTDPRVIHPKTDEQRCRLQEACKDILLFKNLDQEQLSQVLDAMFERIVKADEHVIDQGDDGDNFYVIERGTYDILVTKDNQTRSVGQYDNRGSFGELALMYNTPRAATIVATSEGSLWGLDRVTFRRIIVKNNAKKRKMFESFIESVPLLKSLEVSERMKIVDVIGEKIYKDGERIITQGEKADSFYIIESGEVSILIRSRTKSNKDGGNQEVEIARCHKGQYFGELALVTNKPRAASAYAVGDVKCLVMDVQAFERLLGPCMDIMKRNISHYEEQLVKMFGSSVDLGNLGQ
Protocol: The recombinant human PKA catalytic subunit (Cα1) and the four human PKA regulatory subunits (RIα, RIβ, RIIα, RIIβ) were expressed, purified, and characterized as described. […] PKA holoenzymes were formed by mixing the R- and C-subunit at a molar ratio of 1.2:1 and extensive dialysis against 20 mM MOPS (pH 7.0), 150 mM NaCl, 2.5 mM β-mercaptoethanol, supplemented with 1 mM ATP and 10 mM MgCl2 for PKA-I at 4°C overnight. PKA holoenzymes were used at about 20 nM for the activation assay. The apparent activation constants (Kact) were determined by fitting the concentration-dependent activity to a sigmoid dose-response model.

Compound: COC1C2OP(=O)(O)OCC2OC1n1c(Sc2ccc(Cl)cc2)nc2c(N)ncnc21 [D-007, 8-pCPT-2′-O-Me-cAMP, reference compound]
- kobs ([1]; 0.01 μM compound): 4.6e-05 s⁻¹
- kobs ([1]; 0.05 μM compound): 0.000133 s⁻¹
- kobs ([1]; 0.08 μM compound): 0.000193 s⁻¹
- kobs ([1]; 0.1 μM compound): 0.000213 s⁻¹
- kobs ([1]; 0.2 μM compound): 0.000391 s⁻¹
- kobs ([1]; 0.3 μM compound): 0.000569 s⁻¹
- kobs ([1]; 0.4 μM compound): 0.000728 s⁻¹
- kobs ([1]; 0.5 μM compound): 0.000822 s⁻¹
- kobs ([1]; 0.6 μM compound): 0.000999 s⁻¹
- kobs ([1]; 0.7 μM compound): 0.00113 s⁻¹
- kobs ([1]; 0.8 μM compound): 0.00123 s⁻¹
- kobs ([1]; 1 μM compound): 0.00137 s⁻¹
- kobs ([1]; 2 μM compound): 0.00219 s⁻¹
- kobs ([1]; 3 μM compound): 0.00266 s⁻¹
- kobs ([1]; 4 μM compound): 0.00283 s⁻¹
- kobs ([1]; 5 μM compound): 0.00293 s⁻¹
- kobs ([1]; 6 μM compound): 0.00312 s⁻¹
- kobs ([1]; 7 μM compound): 0.00321 s⁻¹
- kobs ([1]; 8 μM compound): 0.00328 s⁻¹
- kobs ([1]; 20 μM compound): 0.00351 s⁻¹
- kobs ([1]; 30 μM compound): 0.00364 s⁻¹
- kobs ([1]; 40 μM compound): 0.00378 s⁻¹
- kobs ([1]; 50 μM compound): 0.00348 s⁻¹
- kobs ([1]; 60 μM compound): 0.00363 s⁻¹
- kobs ([1]; 70 μM compound): 0.0036 s⁻¹
- kobs ([1]; 80 μM compound): 0.00359 s⁻¹
- kobs ([1]; 100 μM compound): 0.00349 s⁻¹
- potency relative to cAMP by activation potential (times more potently than cAMP) ([1]; Epac1): 100 times
- activation of Epac1 in cells [2]: strongly activated
- rel. RapGTP [2]: 1.65
- EC50 ([3]; PKA-IIα, read-out: Kact): > 70 µM
- A (PKA activity) ([3]; concentration 1 μM): 7.998 U/mg
- A (PKA activity) ([3]; concentration 1.00E+01 μM): 1.14E+01 U/mg
- A (PKA activity) ([3]; concentration 1.00E+03 μM): 1.97E+01 U/mg
- A (PKA activity) ([3]; concentration 1.00E-01 μM): 4.917 U/mg
- A (PKA activity) ([3]; concentration 1.00E-02 μM): 4.453 U/mg
- A (PKA activity) ([3]; concentration 1.00E-03 μM): 5.045 U/mg
- A (PKA activity) ([3]; concentration 1.00E-04 μM): 4.937 U/mg
- A (PKA activity) ([3]; concentration 1.00E-05 μM): 3.782 U/mg
- A (PKA activity) ([3]; concentration 2.50E+02 μM): 1.57E+01 U/mg
- A (PKA activity) ([3]; concentration 5.00E+01 μM): 1.39E+01 U/mg
- A (PKA activity) ([3]; concentration 5.00E+02 μM): 1.77E+01 U/mg
- A (PKA activity) ([3]; concentration […]): 9.518 U/mg

Compound: Nc1ncnc2c1nc(Sc1ccc(Cl)cc1)n2[C@@H]1O[C@@H]2COP(=O)(O)O[C@H]2[C@H]1O [L-026, 8-pCPT-cAMP]
- rel. RapGTP [2]: 1.1255

From paper PMC4300089, “Structure-Guided Design of Selective Epac1 and Epac2 Agonists” (PLoS Biology, 2015)
